Patent publication US7566808B2, “Management of ophthalmologic disorders, including macular degeneration” (President and Fellows of Harvard College, priority 2004, dated 2009)

Assays:
[1] = tested on: bovine retinal pigment epithelial membrane system (11-cis-retinol formation); experiment: 11-cis-retinol formation in RPE membranes (IMH activity / RPE65 function); format: biochemical
Experimental: A control reaction mixture without any inhibitor was also incubated at room temperature for 15 min. At the end of the 15 min incubation, all-trans-retinol [11-12-^3H2] (0.2 μM) was added to the reaction mixtures (100 mM Tris pH 8.0, […] of RPE protein, 0.2% BSA 100 μM of DPPC, 1 mM of DTT and 0.2 μM all-trans-retinol [11-12-^3H2]) and incubated at room temperature for 30 min. At the end of this 30 minutes of incubation, an aliquot of the reactions were quenched to verify the equal addition of all-trans-retinol [11,12-^3H2] and the effect of these inhibitors on LRAT. After this the control reaction mixture was incubated with atRA (60 & 6 μM), 13cRA (60 & 6 μM) or 4-HPR (60 & 6 μM) for 15 min. Now all the reaction mixtures were incubated with 30 μM of apo-rCRALBP (100 mM Tris pH 8.0, 7.7 μg of RPE protein, 0.2% BSA 100 μm of DPPC, 1 mM of DTT 30 μM apo-rCRALBP and 0.2 μM all-trans-retinol [11-12-^3H2]) at 37° C. for 30 minutes. At the end of this incubation period the 200 μL reaction mixture was quenched by the addition of 750 μL ice cold methanol after which 100 μL of 1M sodium chloride solution was added, and 500 μl hexane (containing butylated hydroxy toluene at 1 mg/mL) was added to effect extraction of the retinoids. The retinoids were analyzed as previously described (27). The amount of 11-cis-retinol formed was used as a measurement of IMH activity. All experiments were performed in triplicate and the average values of these measurements were used for analysis.
A control reaction mixture without any inhibitor was also incubated at room temperature for 15 min. At the end of the 15 min incubation, all-trans-retinol [11-12-^3H2] (0.2 μM) was added to the reaction mixtures (100 mM Tris pH 8.0, 76.7 μg of RPE protein, 0.2% BSA 100 μM of DPPC, 1 mM of DTT and 0.2 μM all-trans-retinol [11-12-^3H2]) and incubated at room temperature for 30 min. […] The retinoids were analyzed as previously described (27). […]

[2] = tested on: A2E formation from all-trans-retinal and ethanolamine; experiment: In vitro A2E formation in the presence of aromatic amine
Experimental: 100 mg (355 μmoles) of all-trans-retinal was dissolved in 3 mL followed by the addition of 9.5 μL of glacial acetic acid 9.5 μL of ethanolamine (155 μmoles). This solution was aliquoted into 300 μL fractions. 3-aminoethylbenzoate (15.5 μmoles) was added to the samples at 0, 2, 3.75, 14, 16.25, 18.0833 19.917 23.75 and 48 hrs. […] The solutions were shaken at room temperature for 48 hrs. The solutions were then kept at −80° C. and 15 μL was diluted to 250 μL (methanol). The solutions (15 μL) were then analyzed on a reverse phase (C18-5 μm-4.6 mm×150 mm) column on a linear gradient 85%-96% methanol/water and UV detector at 430 nm to determine the amount of A2E formation. The percent A2E formation was compared to A2E formation at 48 h in the absence of aromatic amine.

[3] = tested on: abcr knockout mice; experiment: In vivo A2E accumulation in abcr knockout mice; details: versus no drug
Experimental: Effects on accumulation of A2E in abcr knockout mice by farnesyl decyl ketone and N-palmityl farnesimide were investigated. Mice were injected with 50 mg/kg drug in 25 microliters of DMSO or with only DMSO for the control group once or twice a week. After 2 to 2½ months, the mice were sacrificed, and A2E and iso-A2E were harvested and quantitated from 4 eyes for each drug or control.

[4] = target: T1, tLRAT (Homo sapiens, UniProt O95237); experiment: mRPE65 concentration-dependent esterification of vitamin A by tLRAT; format: biochemical; details: FIG. 11C
T1 construct: This form of LRAT has the two N and C-terminal transmembrane domains of LRAT truncated, and is His-tagged; made in house
T1 sequence (O95237 31-196 limits assumed): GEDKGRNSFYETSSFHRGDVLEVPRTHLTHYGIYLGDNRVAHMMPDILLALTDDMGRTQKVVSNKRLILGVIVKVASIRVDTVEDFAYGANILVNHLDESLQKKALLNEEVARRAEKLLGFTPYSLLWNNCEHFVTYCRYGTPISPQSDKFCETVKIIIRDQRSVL
Experimental: Effect of sRPE65 on tLRAT mediated esterification: The activity of LRAT was determined by monitoring the formation of tLRAT catalyzed retinyl esters from added all-trans-retinol [11,12-^3H2] sRPE65 and/or DPPC/dodecyl maltoside. In all of the studies reported here truncated LRAT (tLRAT) is used (Jahng et al., 2003b). This form of LRAT has the two N and C-terminal transmembrane domains of LRAT truncated, and is His-tagged which allows for the bacterial expression of LRAT and for its full purification (Bok et al., 2003). LRAT has never been purified and is not expressible in bacteria. Kinetic studies on LRAT and tLRAT show them to behave identically (Bok et al., 2003). […] The amount of all-trans-retinyl palmitate [11,12-^3H2] formed as determined by normal phase HPLC and was used as a measure of activity. […]
mRPE65 concentration-dependent esterification of vitamin A: The effect of mRPE65 concentration on the rates of all-trans-retinyl palmitate formation was determined by monitoring the tLRAT catalyzed formation of all-trans-retinyl palmitate from added [11,12-^3H2]-all-trans-retinol and mRPE65. […] The amount of all-trans-retinyl palmitate [11,12-^3H2] formed as determined by normal phase-HPLC and was used as a measure of activity. The kinetic paramaters KM (Kapp) and N were calculated as described before (Segal 1993). […]

CC1=C(/C=C/C(C)=C/C=C/C(C)=C/C(=O)Nc2ccc(O)cc2)C(C)(C)CCC1 [N-(4-hydroxyphenyl)retinamide]
inhibition of 11-cis-retinol formation, pre-incubation with inhibitor ([1]; 60 μM or 6 μM, pre-incubation before vitamin A, FIG. 8): substantially weaker

CCOC(=O)c1cccc(N)c1 [3-aminoethylbenzoate, ethyl 3-aminobenzoate]
A2E % formation (48 Hrs = 100) ([2]; amine added at 0 hrs): 3.98%
A2E % formation (48 Hrs = 100) ([2]; amine added at 2 hrs): 8.67%
A2E % formation (48 Hrs = 100) ([2]; amine added at 3.75 hrs): 7.71%
A2E % formation (48 Hrs = 100) ([2]; amine added at 14 hrs): 19.73%
A2E % formation (48 Hrs = 100) ([2]; amine added at 16.25 hrs): 19.25%
A2E % formation (48 Hrs = 100) ([2]; amine added at 18.0833 hrs): 23.70%
A2E % formation (48 Hrs = 100) ([2]; amine added at 19.91667 hrs): 27.65%
A2E % formation (48 Hrs = 100) ([2]; amine added at 23.75 hrs): 22.44%
A2E % formation (48 Hrs = 100) ([2]; amine added at 48 hrs): 100.00%

CC1=C(/C=C/C(C)=C/C=C/C(C)=C/C(=O)O)C(C)(C)CCC1 [all-trans-retinoic acid]
inhibition of 11-cis-retinol formation, membranes pre-incubated with vitamin A before inhibitor ([1]; 60 μM, data not shown): not susceptible to inhibition

CCCCCCCCCCCCCCCCNC(=O)C/C=C(\C)CC/C=C(\C)CCC=C(C)C [N-Palmityl farnesimide, palmityl farnesimide]
reduction of total accumulation [3]: about 47%

CCCCCCCCCCC(=O)CC=C(C)CCC=C(C)CCC=C(C)C [Farnesyl decyl ketone, farnesyl decyl ketone]
reduction of total accumulation [3]: about 80%

B1: mRPE65: membrane-associated, palmitoylated form of RPE65; acts as palmitoyl donor for LRAT (protein, UniProt Q16518 2-533, looked up)
Retinoid isomerohydrolase: SIQVEHPAGGYKKLFETVEELSSPLTAHVTGRIPLWLTGSLLRCGPGLFEVGSEPFYHLFDGQALLHKFDFKEGHVTYHRRFIRTDAYVRAMTEKRIVITEFGTCAFPDPCKNIFSRFFSYFRGVEVTDNALVNVYPVGEDYYACTETNFITKINPETLETIKQVDLCNYVSVNGATAHPHIENDGTVYNIGNCFGKNFSIAYNIVKIPPLQADKEDPISKSEIVVQFPCSDRFKPSYVHSFGLTPNYIVFVETPVKINLFKFLSSWSLWGANYMDCFESNETMGVWLHIADKKRKKYLNNKYRTSPFNLFHHINTYEDNGFLIVDLCCWKGFEFVYNYLYLANLRENWEEVKKNARKAPQPEVRRYVLPLNIDKADTGKNLVTLPNTTATAILCSDETIWLEPEVLFSGPRQAFEFPQINYQKYCGKPYTYAYGLGLNHFVPDRLCKLNVKTKETWVWQEPDSYPSEPIFVSHPDALEEDDGVVLSVVVSPGAGQKPAYLLILNAKDLSEVARAEVEINIPVTFHGLFKKS
modifications: palmitoylated membrane-associated form
notes: membrane-associated, palmitoylated form of RPE65; acts as palmitoyl donor for LRAT
Hill plot N [4]: 2.54
